Laboratory results from PubChem BioAssay (NCI).
Several values for one entry are separate records, joined by “and”; a condition that tells them apart may be missing. Identical values can stand only once.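 How tested: cells in 96-well plates exposed to compound for 48 hours at five concentrations. Here, GI50 denotes the concentration required for 50% inhibition of growth. TGI is the concentration that stops growth completely.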

Legend:
Assay in all cases: NCI anticancer screen, dose series, 48 h
SN12C renal = system: SN12C renal
SNB-19 CNS = system: SNB-19 CNS
LXFL 529 NSCLC = system: LXFL 529 NSCLC
ACHN renal = system: ACHN renal
U251 CNS = system: U251 CNS
TK-10 renal = system: TK-10 renal
KM12 colon = system: KM12 colon
OVCAR-5 ovarian = system: OVCAR-5 ovarian
HOP-62 NSCLC = system: HOP-62 NSCLC
KM20L2 colon = system: KM20L2 colon

CC1=CC(/C=C(\C)CCCc2ccoc2)C2(OC(=O)C(C)=C2O)[C@H]2C1CC[C@@H]2C (some centres not stated)
TGI (SN12C renal): 60.8 µM
TGI (SNB-19 CNS): 42.6 µM
TGI (LXFL 529 NSCLC): 58.8 µM
TGI (ACHN renal): 76.4 µM
TGI (U251 CNS): 67.1 µM
TGI (TK-10 renal): > 100 µM
TGI (KM12 colon): > 100 µM

O=c1n(CC2CO2)c(=O)n(CC2CO2)c(=O)n1CC1CO1 (configuration not stated)
GI50 (OVCAR-5 ovarian): 18.2 µM and 19.9 µM
TGI (OVCAR-5 ovarian): 56 µM and 118 µM and 40.1 µM
GI50 (SN12C renal): 17.7 µM and 3.55 µM
TGI (SN12C renal): 52 µM and 88.1 µM and > 100 µM
GI50 (SNB-19 CNS): 22 µM and 6.55 µM
TGI (SNB-19 CNS): 98.3 µM and > 100 µM
GI50 (ACHN renal): 3.68 µM and 0.504 µM
TGI (ACHN renal): 140 µM and > 100 µM
GI50 (U251 CNS): 5.47 µM
TGI (U251 CNS): 32.4 µM and 67.2 µM and 32.2 µM
GI50 (TK-10 renal): 21.1 µM
TGI (TK-10 renal): 121 µM and > 100 µM
GI50 (HOP-62 NSCLC): 6.38 µM and 15.1 µM
TGI (HOP-62 NSCLC): 38.8 µM and 96.1 µM and > 100 µM
GI50 (KM12 colon): 21.3 µM
TGI (KM12 colon): 112 µM and > 100 µM
TGI (KM20L2 colon): 201 µM

CC(C)(C)OC(=O)NCC(=O)OCc1ccccc1
TGI (OVCAR-5 ovarian): > 100 µM
TGI (SN12C renal): > 100 µM
TGI (SNB-19 CNS): > 100 µM
TGI (LXFL 529 NSCLC): > 100 µM
TGI (ACHN renal): > 100 µM
TGI (U251 CNS): > 100 µM
TGI (TK-10 renal): > 100 µM
TGI (HOP-62 NSCLC): > 100 µM
TGI (KM12 colon): > 100 µM

COc1ccc2c(c1)CCC1C2CC[C@@]2(C)C1CC1=CC(COC(C)=O)C3C(=O)c4ccccc4C(=O)C3C12 (some centres not stated)
GI50 (OVCAR-5 ovarian): > 100 µM
TGI (OVCAR-5 ovarian): > 100 µM
GI50 (SN12C renal): > 100 µM
TGI (SN12C renal): > 100 µM
GI50 (SNB-19 CNS): > 100 µM
TGI (SNB-19 CNS): > 100 µM
GI50 (ACHN renal): 47.9 µM
TGI (ACHN renal): > 100 µM
GI50 (U251 CNS): > 100 µM
TGI (U251 CNS): > 100 µM
GI50 (TK-10 renal): > 100 µM
TGI (TK-10 renal): > 100 µM
GI50 (HOP-62 NSCLC): > 100 µM
TGI (HOP-62 NSCLC): > 100 µM
GI50 (KM12 colon): > 100 µM
TGI (KM12 colon): > 100 µM

O=S(=O)(Nc1cc(F)cc(Cl)c1)c1ccc(-c2cnc(C3CC3)o2)cc1
GI50 (OVCAR-5 ovarian): 4.43 µM
TGI (OVCAR-5 ovarian): 21.5 µM
GI50 (SN12C renal): 3.49 µM
TGI (SN12C renal): 17.4 µM
GI50 (SNB-19 CNS): 1.46 µM
TGI (SNB-19 CNS): 16.7 µM
GI50 (ACHN renal): 4.67 µM
TGI (ACHN renal): 45 µM
GI50 (U251 CNS): 1.55 µM
TGI (U251 CNS): 15.2 µM
GI50 (TK-10 renal): 6.29 µM
TGI (TK-10 renal): 29.6 µM
GI50 (HOP-62 NSCLC): 1.56 µM
TGI (HOP-62 NSCLC): 17.7 µM
GI50 (KM12 colon): 0.614 µM
TGI (KM12 colon): 16.7 µM

CC(O)C(N=Cc1ccccc1[O-])C(=O)[O-].CC(O)C(N=Cc1ccccc1[O-])C(=O)[O-].[Co+2] (configuration not stated)
GI50 (OVCAR-5 ovarian): > 100 µM
TGI (OVCAR-5 ovarian): > 100 µM
GI50 (SN12C renal): > 100 µM
TGI (SN12C renal): > 100 µM
GI50 (SNB-19 CNS): > 100 µM
TGI (SNB-19 CNS): > 100 µM
GI50 (ACHN renal): > 100 µM
TGI (ACHN renal): > 100 µM
GI50 (TK-10 renal): > 100 µM
TGI (TK-10 renal): > 100 µM
GI50 (KM12 colon): > 100 µM
TGI (KM12 colon): > 100 µM
GI50 (KM20L2 colon): > 100 µM
TGI (KM20L2 colon): > 100 µM

CC(C)(C)C(=O)OCOP(=O)(OCOC(=O)C(C)(C)C)C1CCCN(O)C1=O (configuration not stated)
GI50 (OVCAR-5 ovarian): 2.01 µM
TGI (OVCAR-5 ovarian): 62.7 µM
GI50 (SN12C renal): 0.334 µM
TGI (SN12C renal): 14.1 µM
GI50 (SNB-19 CNS): 0.551 µM
TGI (SNB-19 CNS): 28.7 µM
GI50 (ACHN renal): 0.34 µM
TGI (ACHN renal): 7.97 µM
GI50 (U251 CNS): 0.342 µM
TGI (U251 CNS): 5.22 µM
GI50 (TK-10 renal): 0.537 µM
TGI (TK-10 renal): 8.05 µM
GI50 (HOP-62 NSCLC): 0.487 µM
TGI (HOP-62 NSCLC): 6.63 µM
GI50 (KM12 colon): 0.443 µM
TGI (KM12 colon): 13.3 µM

O=[n+]1c2c(n([O-])c3ccccc31)CCCCCCCCCC2
TGI (SN12C renal): > 100 µM
TGI (SNB-19 CNS): > 100 µM
TGI (LXFL 529 NSCLC): > 100 µM
TGI (ACHN renal): > 100 µM
TGI (U251 CNS): > 100 µM
TGI (TK-10 renal): > 100 µM
TGI (KM12 colon): > 100 µM
TGI (KM20L2 colon): > 100 µM

CCN1CCN(c2ccc(Nc3cc(N(C)C(=O)Nc4c(Cl)c(OC)cc(OC)c4Cl)ncn3)cc2)CC1
GI50 (OVCAR-5 ovarian): 3.7 µM
TGI (OVCAR-5 ovarian): 14.7 µM
GI50 (SN12C renal): 2.62 µM
TGI (SN12C renal): 11 µM
GI50 (SNB-19 CNS): 4.06 µM
TGI (SNB-19 CNS): 18.7 µM
GI50 (ACHN renal): 2.18 µM
TGI (ACHN renal): 13.6 µM
GI50 (U251 CNS): 1.47 µM
TGI (U251 CNS): 3.71 µM
GI50 (TK-10 renal): 2.5 µM
TGI (TK-10 renal): 12.5 µM
GI50 (HOP-62 NSCLC): 4.03 µM
TGI (HOP-62 NSCLC): 15.5 µM
GI50 (KM12 colon): 4.47 µM
TGI (KM12 colon): 18.7 µM

COc1cc(Nc2cn[nH]c2-c2ccc(Cl)cc2)cc(OC)c1OC
GI50 (OVCAR-5 ovarian): 15.9 µM
TGI (OVCAR-5 ovarian): > 77.1 µM
GI50 (SN12C renal): 8.68 µM
TGI (SN12C renal): > 100 µM
GI50 (SNB-19 CNS): 6.96 µM
TGI (SNB-19 CNS): > 69.3 µM
GI50 (ACHN renal): 7.41 µM
TGI (ACHN renal): > 76.8 µM
GI50 (U251 CNS): 4.91 µM
TGI (U251 CNS): 33.3 µM
GI50 (TK-10 renal): 9.13 µM
TGI (TK-10 renal): 62.9 µM
GI50 (HOP-62 NSCLC): 6.91 µM
TGI (HOP-62 NSCLC): 44.5 µM
GI50 (KM12 colon): 2.83 µM
TGI (KM12 colon): 16.4 µM

CC(SC(C)C(=O)N/N=C/c1cccc(Cl)c1)C(=O)N/N=C\c1cccc(Cl)c1 (configuration not stated)
GI50 (OVCAR-5 ovarian): 17.4 µM
TGI (OVCAR-5 ovarian): 44.2 µM
GI50 (SN12C renal): 12.1 µM
TGI (SN12C renal): 53.9 µM
GI50 (SNB-19 CNS): 21.7 µM
TGI (SNB-19 CNS): > 100 µM
GI50 (ACHN renal): 5.53 µM
TGI (ACHN renal): > 100 µM
GI50 (U251 CNS): 3.74 µM
TGI (U251 CNS): 15.1 µM
GI50 (TK-10 renal): 4.66 µM
TGI (TK-10 renal): 18.1 µM
GI50 (HOP-62 NSCLC): 13.9 µM
TGI (HOP-62 NSCLC): 31.4 µM
GI50 (KM12 colon): 11.4 µM
TGI (KM12 colon): 30.3 µM

COc1ncnc(C2CC2)c1-c1ncc2cnn(Cc3ccc(-c4nc(C(F)(F)F)cn4C(C)C)cc3)c2n1
GI50 (OVCAR-5 ovarian): 26.2 µM
TGI (OVCAR-5 ovarian): > 100 µM
GI50 (SN12C renal): 18.6 µM
TGI (SN12C renal): > 100 µM
GI50 (SNB-19 CNS): 22 µM
TGI (SNB-19 CNS): 69.5 µM
GI50 (ACHN renal): 17.6 µM
TGI (ACHN renal): 49.2 µM
GI50 (U251 CNS): 25.7 µM
TGI (U251 CNS): > 100 µM
GI50 (TK-10 renal): 29 µM
TGI (TK-10 renal): > 100 µM
GI50 (HOP-62 NSCLC): 25.6 µM
TGI (HOP-62 NSCLC): > 100 µM
GI50 (KM12 colon): 23.4 µM
TGI (KM12 colon): 81.8 µM
